Laboratory results from patent publication US20260335323A1, “CHIMERIC MOLECULE” (UCL Business Ltd, priority 2023, published 2026).

Molecular target: T1, ULK1 (Homo sapiens, UniProt O75385)
T1 sequence (O75385 1-1050): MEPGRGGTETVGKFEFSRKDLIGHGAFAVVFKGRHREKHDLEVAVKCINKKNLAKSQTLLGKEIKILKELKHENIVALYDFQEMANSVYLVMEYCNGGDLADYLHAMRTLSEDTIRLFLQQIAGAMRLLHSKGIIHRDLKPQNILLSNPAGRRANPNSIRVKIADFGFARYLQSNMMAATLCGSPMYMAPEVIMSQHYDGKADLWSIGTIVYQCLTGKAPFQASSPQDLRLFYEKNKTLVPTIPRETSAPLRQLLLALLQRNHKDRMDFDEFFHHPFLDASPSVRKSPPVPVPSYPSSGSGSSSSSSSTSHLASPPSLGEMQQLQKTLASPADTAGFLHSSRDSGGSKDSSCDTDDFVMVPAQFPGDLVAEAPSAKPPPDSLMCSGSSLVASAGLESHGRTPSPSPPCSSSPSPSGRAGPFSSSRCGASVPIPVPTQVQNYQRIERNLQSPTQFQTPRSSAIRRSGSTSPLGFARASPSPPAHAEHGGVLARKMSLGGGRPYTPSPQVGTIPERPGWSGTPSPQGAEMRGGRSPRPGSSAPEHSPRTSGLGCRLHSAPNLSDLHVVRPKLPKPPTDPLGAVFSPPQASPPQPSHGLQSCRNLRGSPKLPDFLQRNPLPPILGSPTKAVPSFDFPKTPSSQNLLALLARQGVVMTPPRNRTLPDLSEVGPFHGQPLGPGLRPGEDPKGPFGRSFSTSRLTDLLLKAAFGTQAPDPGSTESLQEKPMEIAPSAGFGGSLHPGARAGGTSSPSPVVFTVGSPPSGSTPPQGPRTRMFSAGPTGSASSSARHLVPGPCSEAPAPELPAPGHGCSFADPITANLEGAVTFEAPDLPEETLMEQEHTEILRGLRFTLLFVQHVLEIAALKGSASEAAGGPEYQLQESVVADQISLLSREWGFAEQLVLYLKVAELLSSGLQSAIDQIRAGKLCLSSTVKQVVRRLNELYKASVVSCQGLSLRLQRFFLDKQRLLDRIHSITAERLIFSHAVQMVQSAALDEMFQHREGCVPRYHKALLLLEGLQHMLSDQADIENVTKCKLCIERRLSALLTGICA
Assay: ULK1/TOM20 co-localisation immunofluorescence in PANC-1 cells
Assay type: cell-based
Parameters: pSer317 blot or TOM20 co-localisation
Description: FIG. 5. ULKTACs induce potent mitophagy after colocalisation and local activation of ULK1 at mitochondria (A) Representative immunofluorescence of PANC-1 cells treated with CCCP, ULKTACs or both and immunostained for TOM20 and ULK1 and counterstained with Alexa 488 and 568, respectively. Nuclei stained with Hoechst 33342. (B) Quantification of the colocalised ULK1 to TOM20 spot area of PANC-1 cells treated with DMSO, 5 mM CCCP, 10 mM BL-918, 10 mM BL-918+5 mM CCCP, […] NZ-65, […] NZ-65+5 mM CCCP, […] NZ-66, […] NZ-66+5 mM CCCP, 50 mM TSPO ligand, […] NZ-65+50 mM TSPO ligand, […] NZ-66+50 mM TSPO ligand. (C) Western blot of SH-SY5Y cells treated with 1 mM ULKTACs, 5 mM CCCP or both, probed for Mfn2, b-Actin and Tom20—quantifications are shown in (D) for Mfn2, normalised to Actin. (E) Representative images of SH-SY5Y cells stably expressing the mito-mKeima reporter treated with 3 mM CCCP, NZ-65 or both. Nuclei were stained with Hoechst 33342, healthy mitochondria are shown in green and mitochondria in lysosomes are shown in red. Fold change in mitophagy index over time after treatment for the indicated timepoints with title treatments alone or co-treated with 1.25 mM ULKTAC or 10 mM ULKTAC NZ-65 (F) or NZ-66 (G). Fold change in mitophagy index over time after treatment for the indicated timepoints with DMSO, 1.25 µM NZ-65 or NZ-66±50 µM TSPO ligand under co-treatment with DMSO (H) or 3 μM CCCP (I). […] Normalised to number of nuclei. All data shown are mean±SEM, n=3, *p<0.05, ** p<0.01, *** p<0.001. For colocalisation and TMRM experiments, one-way ANOVA with Dunnett's multiple comparisons test. For western blots, one-way ANOVA with Tukey's multiple comparisons test and unpaired t-test. For mito-mKeima experiment, two-way ANOVA with Tukey's multiple comparisons test.
For TOM20/ULK1 immunofluorescence, cells were seeded in a 384 well PerkinElmer CellCarrier Ultra plate 24 hours prior to treatment with compounds. Cells were treated for 18 hours after which they were fixed with 4% paraformaldehyde (PFA) in phosphate buffered saline (PBS) and blocked with 10% FBS and 0.1% Triton in PBS. Plates were incubated at 4° C. overnight, with 1:400 mouse anti-TOM20 (Santa Cruz, #sc-17764) and 1:400 rabbit anti-ULK1 (Cell Signalling Technologies, #0854). The following day, plates were incubated with 1:1000 goat anti-mouse Alexa 488 (ThermoFisher Scientific, #A-11029), 1:1000 goat anti-rabbit Alexa 568 (ThermoFisher Scientific, #A-11011) and 1.62 μM Hoechst 33342 at room temperature for 1 hour before imaging. For ATP5a/LC3 immunofluorescence, cells were fixed with ice-cold 1:1 MeOH: acetone and blocked with 3% BSA (Sigma-Aldrich, #A3803) in Dulbecco's PBS (D-PBS). Plates were incubated overnight at 4° C. with 1:400 LC3B (D11) XP Rabbit mAb Alexa Fluor 647 Conjugate (Cell Signalling Technologies, #65299) and 1:400 ATP5a (Cell Signalling Technologies, #18023) lightning-linked to Alexa Fluor 488. The following day, plates were incubated with 1.62 […] at room temperature for 1 hour before imaging. Excitation and emission spectra for each channel are as follows: Hoechst 33342=405/435-480 nm, Alexa 488=488/500-550 nm and Alexa 568=561/570-630 nm. Images were acquired at 40× and 63× magnification with water immersion lens.
To understand the temporal kinetics of NZ-65 and NZ-66, we assessed the recruitment of ULK1 to mitochondria, using co-localisation of ULK1 and TOM20 by immunofluorescence. […] After showing the co-localisation of ULK1 to the outer mitochondrial membrane (OMM) after ULKTAC treatment, we wanted to determine whether the ULKTACs induced mitophagy. To do this, we measured changes in Mfn2 under basal conditions and co-treatment with CCCP (FIG. 5C, D).

Row | co-localisation of ULK1 and TOM20 (PANC-1, CCCP co-treatment) | Structure (SMILES) | co-localisation of ULK1 and TOM20 (PANC-1, 18 hours, alone)
1 | enhanced by CCCP co-treatment | O=C(Nc1cc(C(F)(F)F)cc(C(F)(F)F)c1)N[C@@H](C(=O)Nc1ccc(F)cc1F)c1ccc(OCc2cn(CCCCCCNC(=O)C(=O)c3c(-c4ccccc4)[nH]c4ccccc34)nn2)cc1 [NZ-66, (R)-2-(3-(3,5-bis(trifluoromethyl)phenyl)ureido)-N-(2,4-difluorophenyl)-2-(4-((1-(6-(2-oxo-2-(2-phenyl-1H-indol-3-yl)acetamido)hexyl)-1H-1,2,3-triazol-4-yl)methoxy)phenyl) acetamide] | increased co-localisation of ULK1 and TOM20
2 | enhanced by CCCP co-treatment | O=C(Nc1cc(C(F)(F)F)cc(C(F)(F)F)c1)N[C@@H](C(=O)Nc1ccc(F)cc1F)c1ccc(OCc2cn(CCOCCOCCNC(=O)C(=O)c3c(-c4ccccc4)[nH]c4ccccc34)nn2)cc1 [NZ-65, (R)-2-(3-(3,5-bis(trifluoromethyl)phenyl)ureido)-N-(2,4-difluorophenyl)-2-(4-((1-(2-(2-(2-(2-oxo-2-(2-phenyl-1H-indol-3-yl)acetamido)ethoxy)ethoxy)ethyl)-1H-1,2,3-triazol-4-yl)methoxy)phenyl) acetamide] | increased co-localisation of ULK1 and TOM20
3 |  | O=C(Nc1ccc(F)cc1F)[C@H](NC(=S)Nc1cc(C(F)(F)F)cc(C(F)(F)F)c1)c1ccccc1 [BL-918, reference compound] | neither BL-918 nor the TSPO ligand alone induce co-localisation
